The target in experiment [1] is T1, system Xc^− (Homo sapiens, UniProt Q9UPY5).
T1 sequence (Q9UPY5 1-501): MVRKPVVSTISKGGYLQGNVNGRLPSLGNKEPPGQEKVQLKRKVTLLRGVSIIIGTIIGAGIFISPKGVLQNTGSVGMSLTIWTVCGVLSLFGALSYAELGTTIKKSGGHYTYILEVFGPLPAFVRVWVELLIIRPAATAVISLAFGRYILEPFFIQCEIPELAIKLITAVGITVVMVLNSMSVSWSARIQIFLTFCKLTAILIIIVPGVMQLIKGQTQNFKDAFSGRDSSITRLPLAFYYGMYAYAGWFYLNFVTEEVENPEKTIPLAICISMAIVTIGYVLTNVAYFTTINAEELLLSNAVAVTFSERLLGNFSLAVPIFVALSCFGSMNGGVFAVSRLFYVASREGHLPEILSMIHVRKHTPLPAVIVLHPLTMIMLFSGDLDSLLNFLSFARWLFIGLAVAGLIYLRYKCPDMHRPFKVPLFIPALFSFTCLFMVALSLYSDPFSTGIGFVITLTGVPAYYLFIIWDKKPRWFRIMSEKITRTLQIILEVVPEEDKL
T1 sequence (P08195 1-529 partner): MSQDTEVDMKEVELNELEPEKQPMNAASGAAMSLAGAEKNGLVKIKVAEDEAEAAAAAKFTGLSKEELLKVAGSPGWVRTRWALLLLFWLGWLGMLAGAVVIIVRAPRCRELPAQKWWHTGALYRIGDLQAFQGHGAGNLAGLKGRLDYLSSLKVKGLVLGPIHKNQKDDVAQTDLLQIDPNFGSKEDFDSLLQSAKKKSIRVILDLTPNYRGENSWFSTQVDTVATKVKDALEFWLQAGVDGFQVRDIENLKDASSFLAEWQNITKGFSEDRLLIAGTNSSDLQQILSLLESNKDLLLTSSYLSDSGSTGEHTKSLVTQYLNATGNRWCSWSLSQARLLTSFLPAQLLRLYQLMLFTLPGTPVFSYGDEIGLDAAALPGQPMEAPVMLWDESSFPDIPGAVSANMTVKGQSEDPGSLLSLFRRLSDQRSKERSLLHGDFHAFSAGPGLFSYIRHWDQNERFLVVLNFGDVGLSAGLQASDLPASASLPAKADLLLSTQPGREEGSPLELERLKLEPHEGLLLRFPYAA
Description: [^14C]L-Cystine uptake assay. Type of experiment: cell-based. Also noted: endogenous in cells; host or cells: H4 cells. As to conditions: H4 cells, sodium-free HEPES buffer, 0.5 μM L-[14C]Cystine and 4.5 μM L-Cystine, 1 hour at 37° C.; read-out: pIC50 [^14C] L-Cystine uptake assay (converted). Summed up: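 Compound effect is given as pIC50, taken between controls of 1% DMSO and 50 μM Erastin. Human H4 cells were pretreated 15 min with compound in sodium-free buffer, then took up 0.5 μM [14C]cystine with 4.5 μM cold cystine for 1 hour at 37° C, read by scintillation proximity counting.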

Experiment [2] concerns the target T1, system Xc^−. Description: Cystine-induced glutamate release assay. In kind it is cell-based. The arrangement: endogenous in cells; host or cells: H4 cells. To be noted: H4 cells, sodium-free HEPES buffer, 50 μM L-Cystine, 2 hours, Amplex Red glutamate readout; read-out: pIC50 Cystine-induced glutamate release assay (converted). In short, it runs like this: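 IC50 (reported as pIC50) normalized to DMSO 1% and Erastin 50 μM controls, from Amplex Red fluorescence of glutamate exported into supernatant. H4 cells were washed into sodium-free buffer to exclude EAAT transport, then given compound with 50 μM L-cystine for 2 h in the incubator.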

For `CC1C(=O)N(CC(=O)Nc2ccc(Cl)c(F)c2)c2ccn(C(F)F)c(=O)c2-c2cccnc21` (stereo not drawn) [#366, N-(4-chloro-3-fluoro-phenyl)-2-[4-(difluoromethyl)-10-methyl-3,9-dioxo-4,8,12-triazatricyclo[9.4.0.0^2,7]pentadeca-1(15),2(7),5,11,13-pentaen-8-yl]acetamide], the IC50 at system Xc^− [1] and at system Xc^− [2] was 39.8 to 100 nM throughout.
Turning to `O=C(CN1C(=O)Cc2ncccc2-c2c1cc(F)nc2F)Nc1ccc(C(F)(F)F)cc1` [#43, 2-(3,5-difluoro-9-oxo-4,8,12-triazatricyclo [9.4.0.0^2,7]pentadeca-1(11),2,4,6,12,14-hexaen-8-yl)-N-[4-(trifluoromethyl)phen-yl]acetamide], the IC50 is 100 to 501 nM at system Xc^− [1] and 39.8 to 100 nM at system Xc^− [2].
Regarding `Cc1cc2c(nc1C)-c1ccccc1CC(=O)N2CC(=O)Nc1ccc(C(F)(F)F)cc1` [#15, 2-(2,3-dimethyl-6-oxo-7H-pyrido[3,2-d][3]benzazepin-5-yl)-N-[4-(trifluoro-methyl)phenyl] acetamide], the results for the IC50 at system Xc^− [1] and at system Xc^− [2] were 15.8 to 39.8 nM and 100 to 501 nM, respectively.
`Cc1cc2c(c(F)n1)-c1ccccc1C(C)C(=O)N2CC(=O)Nc1ccc(Cl)c(F)c1` (stereo not drawn) [#402, N-(4-chloro-3-fluoro-phenyl)-2-(1-fluoro-3,7-dimethyl-6-oxo-7H-pyrido[3,4-a][3]benzazepin-5-yl)acetamide]: the IC50 on system Xc^− [1] and on system Xc^− [2] was < 15.8 nM throughout.
For `Cc1cc2c(cc1C)-n1nccc1CC(=O)N2CC(=O)Nc1ccc(C(F)(F)F)cc1` [#5, 2-(8,9-dimethyl-5-oxo-4H-pyrazolo[5,1-d][1,5]benzodiazepin-6-yl)-N-[4-(trifluoromethyl)phenyl]acetamide], the IC50 on system Xc^− [1] is 39.8 to 100 nM; on system Xc^− [2], 100 to 501 nM.
For `CC1C(=O)N(CC(=O)Nc2ccc(Cl)c(F)c2)c2cc(F)cc(F)c2-c2cccnc21` (single isomer, unassigned) [#406, N-(4-chloro-3-fluoro-phenyl)-2-[9,11-difluoro-5-methyl-6-oxo-5H-pyrido[2,3-d][1]benzazepin-7-yl]acetamide] the same measures were 15.8 to 39.8 nM and 15.8 to 39.8 nM.
As to `Cc1cc2c(c(F)n1)-c1cncnc1C(C)C(=O)N2CC(=O)Nc1ccc(C(F)(F)F)cc1` (stereo not drawn) [#112, 2-(15-fluoro-8,13-dimethyl-9-oxo-4,6,10,14-tetrazatricyclo[9.4.0.0^2,7]pentadeca-1(15),2(7),3,5,11,13-hexaen-10-yl)-N-[4-(trifluoromethyl)phenyl]acetamide], the IC50 on system Xc^− [1] is < 15.8 nM; at system Xc^− [2] it was 39.8 to 100 nM.
Regarding `Cc1cc2c(cn1)-c1cccnc1CC(=O)N2CC(=O)Nc1ccc(C(F)(F)F)cc1` [#36, 2-(5-methyl-9-oxo-4,8,12-triazatricyclo[9.4.0.0^2,7]pentadeca-1(11),2(7),3,5,12,14-hexaen-8-yl)-N-[4-(trifluoromethyl)phenyl]acetamide], the IC50 at system Xc^− [1] is 100 to 501 nM; at system Xc^− [2], 39.8 to 100 nM.
As to `COc1cc2c(c(OC)n1)-c1cccnc1C(C)C(=O)N2CC(=O)Nc1ccc(C(F)F)cc1` (single isomer, unassigned) [#335, N-[4-(difluoromethyl)phenyl]-2-[3,5-dimethoxy-10-methyl-9-oxo-4,8,12-triazatricyclo[9.4.0.0^2,7]pentadeca-1(15),2(7),3,5,11,13-hexaen-8-yl]acetamide], the IC50 on system Xc^− [1] and at system Xc^− [2] was < 15.8 nM throughout.
Turning to `Cc1cc2c(c(OCCO)n1)-c1cccnc1[C@@H](C)C(=O)N2CC(=O)Nc1ccc(C(F)F)cc1` [#374, N-[4-(difluoromethyl)phenyl]-2-[(10R)-3-(2-hydroxyethoxy)-5,10-dimethyl-9-oxo-4,8,12-triazatricyclo[9.4.0.0^2,7]pentadeca-1(11),2(7),3,5,12,14-hexaen-8-yl]acetamide], the IC50 on system Xc^− [1] and on system Xc^− [2] was < 15.8 nM throughout.
`Cc1cc2c(cn1)-c1cccnc1C(C)C(=O)N2CC(=O)Nc1ccc(C(F)F)c(F)c1` (single isomer, unassigned) [#252, N-[4-(difluoromethyl)-3-fluoro-phenyl]-2-[5,10-dimethyl-9-oxo-4,8,12-triazatricyclo[9.4.0.0^2,7]pentadeca-1(15),2,4,6,11,13-hexaen-8-yl]acetamide]: the IC50 at system Xc^− [1] is 15.8 to 39.8 nM; on system Xc^− [2], < 15.8 nM.
For `Cc1cc2c(c(F)n1)-c1ccc(F)cc1C(O)C(=O)N2CC(=O)Nc1ccc(C(F)F)cc1` (single isomer, unassigned) [#380, 2-[1,9-difluoro-7-hydroxy-3-methyl-6-oxo-7H-pyrido[4,3-d][3]benzazepin-5-yl]-N-[4-(difluoromethyl)phenyl]acetamide] the same measures were < 15.8 nM and < 15.8 nM.
Consider `COc1cc2c(cn1)-c1cccnc1C(C)C(=O)N2CC(=O)Nc1ccc(C(F)F)cc1` (single isomer, unassigned) [#319, N-[4-(difluoromethyl)phenyl]-2-[5-methoxy-10-methyl-9-oxo-4,8,12-triazatricyclo[9.4.0.0^2,7]pentadeca-1(15),2(7),3,5,11,13-hexaen-8-yl]acetamide], for which the figures for the IC50 at system Xc^− [1] and on system Xc^− [2] were 39.8 to 100 nM and 15.8 to 39.8 nM, respectively.
Take `Cc1cc2c(c(O)n1)-c1cccnc1CC(=O)N2CC(=O)Nc1ccc(C(F)(F)F)cc1` [#76, 2-(3-hydroxy-5-methyl-9-oxo-4,8,12-triazatricyclo[9.4.0.0^2,7]pentadeca-1(11),2(7),3,5,12,14-hexaen-8-yl)-N-[4-(trifluoromethyl)phenyl]acetamide]: the IC50 on system Xc^− [1] and at system Xc^− [2] was 100 to 501 nM in each case.
`Cc1c2c(cc(=O)n1C)N(CC(=O)Nc1ccc(Cl)c(F)c1)C(=O)C(C)c1ccccc1-2` (stereo not drawn) [#355, N-(4-chloro-3-fluoro-phenyl)-2-(1,2,7-trimethyl-3,6-dioxo-7H-pyrido[3,4-a][3]benzazepin-5-yl)acetamide]: the IC50 was 39.8 to 100 nM at system Xc^− [1] and 15.8 to 39.8 nM at system Xc^− [2].
For the compound `CC1C(=O)N(CC(=O)Nc2ccc(C(F)F)cc2)c2cc(N3CC(F)(F)C3)ccc2-c2cccnc21` (single isomer, unassigned) [#334, 2-[9-(3,3-difluoroazetidin-1-yl)-5-methyl-6-oxo-5H-pyrido[2,3-d][1]benzazepin-7-yl]-N-[4-(difluoromethyl)phenyl]acetamide], the IC50 at system Xc^− [1] and at system Xc^− [2] was < 15.8 nM throughout.
Turning to `CC1C(=O)N(CC(=O)Nc2ccc(Cl)c(F)c2)c2cc(N3[C@@H]4CCC[C@H]3C4)nc(F)c2-c2cccnc21` (single isomer, unassigned) [#269, 2-[5-(6-azabicyclo[3.1.1]heptan-6-yl)-3-fluoro-10-methyl-9-oxo-4,8,12-triazatricyclo[9.4.0.0^2,7]pentadeca-1(11),2(7),3,5,12,14-hexaen-8-yl]-N-(4-chloro-3-fluoro-phenyl)acetamide], the IC50 on system Xc^− [1] and on system Xc^− [2] was 39.8 to 100 nM in each case.
In the case of `CCc1nc(C)cc2c1-c1ccccc1CC(=O)N2CC(=O)Nc1ccc(C(F)(F)F)cc1` [#72, 2-(1-ethyl-3-methyl-6-oxo-7H-pyrido[4,3-d][3]benzazepin-5-yl)-N-[4-(trifluoromethyl)phenyl]acetamide], the IC50 on system Xc^− [1] is 15.8 to 39.8 nM; on system Xc^− [2] it was 39.8 to 100 nM.

The values are drawn from patent US20260217708A1, “FUSED BENZAZEPINE DERIVATIVES FOR USE IN THE TREATMENT OF CANCER AND EPILEPSY” (UCB BIOPHARMA SRL, priority 2023, published 2026).
